Like-named read-outs stand apart in the source and are kept apart here.
Target: T1, BRM (Homo sapiens, UniProt P51531)
T1 construct: In-Cell Western Screen of BRM Degradation in SW1573 Cells; endogenous in cells; host or cells: SW1573
Test: In-cell Western screen of BRM degradation in SW1573 cells (Dmax and DC50)
Format: cell-based
Conditions: for Dmax: read-out: **Dmax (%) (% degraded)
Protocol: In-Cell Western Screen of BRM Degradation in SW1573 Cells
To assess BRM degradation (Dmax and DC50), cells were seeded at 8000/well in 96-well black/clear-bottom plates in 180 μL DMEM growth media (containing 1% pen-strep, 1% HEPES and 10% FBS) per well. Plates were incubated overnight to allow adhesion. The next morning cells were treated by adding 20 μL of 10× compound (1% DMSO) to appropriate wells and returned to incubator for overnight (18-20 hours). The final DMSO concentration was 0.1%.
For processing, the plates were removed from incubator, the media was removed, and immediately 200 μL of cold (4° C.) DPBS was added to all wells. DPBS was then removed, and 50 μL of 4% paraformaldehyde (PFA) in DPBS (4° C.) was added to all wells, and the plates were incubated at room temperature for 20 minutes. PFA was then removed, and 200 μL of TBS-T containing 0.5% Triton X-100 was added to all wells, and the plates were incubated at room temperature for 30 minutes. TBS-T containing 0.5% Triton X-100 was then removed, and 50 μL of Li-Cor blocking solution was added, and the plates were incubated at room temperature for a minimum of one hour.
The next day plates were washed three times with TBS-T, 200 μL per well. Fifty (50) μL of secondary antibody cocktail in LI-COR blocking solution (anti-rabbit_800 nm and anti-mouse_680 nm) was added to all wells (diluted 1:5000). The plates were incubated at room temperature for at least one hour while protected from light. The plates were washed twice with TBS-T, 200 μL per well.
To read each plate TBS-T was removed, and each plate was inverted tapped on a paper towel. The plates were read on the LI-COR Odyssey with default intensity settings of 5.0 for both channels. LI-COR images were analyzed with the in-cell Western feature of Image Studio Lite.

[1] = degradation of BRM, read-out: BRM DC50
[2] = BRM degradation, SW1573 cells, Table 2D, read-out: *DC50
[3] = BRM degradation, SW1573 cells, Table 2D

T1 sequence (P51531 whole entry): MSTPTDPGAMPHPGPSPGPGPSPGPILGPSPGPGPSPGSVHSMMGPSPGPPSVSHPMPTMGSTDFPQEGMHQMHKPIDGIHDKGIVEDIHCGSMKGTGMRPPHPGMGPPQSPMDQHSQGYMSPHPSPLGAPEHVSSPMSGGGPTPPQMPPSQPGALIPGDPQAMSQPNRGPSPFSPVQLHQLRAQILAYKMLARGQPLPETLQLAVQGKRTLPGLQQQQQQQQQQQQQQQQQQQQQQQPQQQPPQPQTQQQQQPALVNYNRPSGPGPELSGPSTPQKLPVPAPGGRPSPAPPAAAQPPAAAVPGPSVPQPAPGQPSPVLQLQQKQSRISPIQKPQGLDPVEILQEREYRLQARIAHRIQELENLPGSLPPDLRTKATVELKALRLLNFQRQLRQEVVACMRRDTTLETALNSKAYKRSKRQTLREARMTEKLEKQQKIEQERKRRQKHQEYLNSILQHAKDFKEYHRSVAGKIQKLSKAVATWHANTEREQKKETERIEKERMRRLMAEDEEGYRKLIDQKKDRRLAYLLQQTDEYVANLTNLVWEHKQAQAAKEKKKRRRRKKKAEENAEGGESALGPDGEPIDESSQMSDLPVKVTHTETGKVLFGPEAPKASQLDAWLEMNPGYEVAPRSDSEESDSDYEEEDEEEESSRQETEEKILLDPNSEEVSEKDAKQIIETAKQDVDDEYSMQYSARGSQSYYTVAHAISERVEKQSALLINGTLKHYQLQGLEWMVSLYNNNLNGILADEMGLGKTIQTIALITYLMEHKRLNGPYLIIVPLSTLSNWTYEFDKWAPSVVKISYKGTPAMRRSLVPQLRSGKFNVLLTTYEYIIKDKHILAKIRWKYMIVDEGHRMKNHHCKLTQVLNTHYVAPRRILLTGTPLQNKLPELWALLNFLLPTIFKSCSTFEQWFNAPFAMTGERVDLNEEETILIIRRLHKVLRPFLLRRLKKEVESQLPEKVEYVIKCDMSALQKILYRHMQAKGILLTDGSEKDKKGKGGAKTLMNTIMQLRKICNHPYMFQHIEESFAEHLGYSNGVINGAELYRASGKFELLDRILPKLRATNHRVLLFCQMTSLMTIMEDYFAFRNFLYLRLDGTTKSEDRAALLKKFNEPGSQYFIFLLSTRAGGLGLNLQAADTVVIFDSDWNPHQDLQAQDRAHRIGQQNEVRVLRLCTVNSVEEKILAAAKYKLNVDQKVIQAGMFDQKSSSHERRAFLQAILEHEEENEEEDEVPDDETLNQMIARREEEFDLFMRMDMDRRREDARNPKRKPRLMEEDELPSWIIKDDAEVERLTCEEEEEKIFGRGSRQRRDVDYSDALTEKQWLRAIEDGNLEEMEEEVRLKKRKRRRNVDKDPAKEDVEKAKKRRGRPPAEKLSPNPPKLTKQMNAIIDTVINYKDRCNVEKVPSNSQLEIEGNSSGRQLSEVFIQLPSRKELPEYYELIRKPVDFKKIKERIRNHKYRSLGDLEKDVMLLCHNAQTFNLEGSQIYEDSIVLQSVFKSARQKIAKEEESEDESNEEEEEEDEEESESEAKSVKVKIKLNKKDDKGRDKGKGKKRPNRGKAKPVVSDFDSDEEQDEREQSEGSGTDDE

Row | SMILES | DC50 [1] [µM] | DC50 [2] [µM] | Dmax [3] [%]
1 | Cc1ncsc1-c1ccc([C@@H](C)NC(=O)[C@H]2C[C@H](O)CN2C(=O)[C@H](c2cc(OCCN3CCC(O)(CN4CC(Oc5cc(N6C7CCC6CN(c6cc(-c8ccccc8O)nnc6N)C7)ccn5)C4)CC3)no2)C(C)C)cc1 (mixture of isomers) [compound 446, rac-(2R,4S)-1-((2S)-2-(3-(2-(4-((3-((4-(3-(3-amino-6-(2-hydroxyphenyl)pyridazin-4-yl)-3,8-diazabicyclo[3.2.1]octan-8-yl)pyridin-2-yl)oxy)azetidin-1-yl)methyl)-4-hydroxypiperidin-1-yl)ethoxy)isoxazol-5-yl)-3-methylbutanoyl)-4-hydroxy-N-((R)-1-(4-(4-methylthiazol-5-yl)phenyl)ethyl)pyrrolidine-2-carboxamide] | > 0.03 |  | 
2 | Cc1nccn1-c1ccc([C@@H](C)NC(=O)[C@H]2C[C@H](O)CN2C(=O)[C@@H](c2cc(N3CCN(CC4CCN(C[C@H]5C[C@H](Oc6cc(N7C8CCC7CN(c7cc(-c9ccccc9O)nnc7N)C8)ccn6)C5)CC4)CC3)no2)C(C)C)cc1 (racemic) [compound 447, rac-(2R,4S)-1-((2R)-2-(3-(4-((1-(((1r,3r)-3-((4-(3-(3-amino-6-(2-hydroxyphenyl)pyridazin-4-yl)-3,8-diazabicyclo[3.2.1]octan-8-yl)pyridin-2-yl)oxy)cyclobutyl)methyl)piperidin-4-yl)methyl)piperazin-1-yl)isoxazol-5-yl)-3-methylbutanoyl)-4-hydroxy-N-((R)-1-(4-(2-methyl-1H-imidazol-1-yl)phenyl)ethyl)pyrrolidine-2-carboxamide] | > 0.03 |  | 
3 | Cc1ncsc1-c1ccc([C@H](C)NC(=O)[C@@H]2C[C@@H](O)CN2C(=O)[C@H](c2cc(OCC[C@@H]3CCN(C[C@H]4C[C@H](Oc5cc(N6C7CCC6CN(c6cc(-c8ccccc8O)nnc6N)C7)ccn5)C4)C[C@@H]3C)no2)C(C)C)cc1 (racemic) [compound 543, (2S,4R)-1-((2S)-2-(3-(2-((3R,4S)-1-(((1r,3R)-3-((4-(3-(3-amino-6-(2-hydroxyphenyl)pyridazin-4-yl)-3,8-diazabicyclo[3.2.1]octan-8-yl)pyridin-2-yl)oxy)cyclobutyl)methyl)-3-methylpiperidin-4-yl)ethoxy)isoxazol-5-yl)-3-methylbutanoyl)-4-hydroxy-N-((S)-1-(4-(4-methylthiazol-5-yl)phenyl)ethyl)pyrrolidine-2-carboxamide] |  | > 0.03 | 
4 | Cc1ncsc1-c1ccc([C@H](C)NC(=O)[C@@H]2C[C@@H](O)CN2C(=O)[C@@H](c2cc(OCC[C@@H]3CCN(C[C@H]4C[C@H](Oc5cc(N6C7CCC6CN(c6cc(-c8ccccc8O)nnc6N)C7)ccn5)C4)C[C@@H]3C)no2)C(C)C)cc1 (racemic) [compound 544, (2S,4R)-1-((2R)-2-(3-(2-((3R,4S)-1-(((1r,3R)-3-((4-(3-(3-amino-6-(2-hydroxyphenyl)pyridazin-4-yl)-3,8-diazabicyclo[3.2.1]octan-8-yl)pyridin-2-yl)oxy)cyclobutyl)methyl)-3-methylpiperidin-4-yl)ethoxy)isoxazol-5-yl)-3-methylbutanoyl)-4-hydroxy-N-((S)-1-(4-(4-methylthiazol-5-yl)phenyl)ethyl)pyrrolidine-2-carboxamide] |  | < 0.0025 | > 75
5 | Cc1ncsc1-c1ccc([C@H](C)NC(=O)[C@@H]2C[C@@H](O)CN2C(=O)[C@H](c2cc(OCC[C@@H]3CCN(C[C@H]4C[C@H](Oc5cc(N6C7CCC6CN(c6cc(-c8ccccc8O)nnc6N)C7)ccn5)C4)C[C@H]3C)no2)C(C)C)cc1 (racemic) [compound 545, (2S,4R)-1-((2S)-2-(3-(2-((3S,4S)-1-(((1r,3S)-3-((4-(3-(3-amino-6-(2-hydroxyphenyl)pyridazin-4-yl)-3,8-diazabicyclo[3.2.1]octan-8-yl)pyridin-2-yl)oxy)cyclobutyl)methyl)-3-methylpiperidin-4-yl)ethoxy)isoxazol-5-yl)-3-methylbutanoyl)-4-hydroxy-N-((S)-1-(4-(4-methylthiazol-5-yl)phenyl)ethyl)pyrrolidine-2-carboxamide] |  | 0.0025 to 0.01 | > 75

— US12539292B2, “BRM targeting compounds and associated methods of use” (Arvinas Operations, Inc., priority 2018, dated 2026)
